# From patent US10787413B2, “Derivatives of curcuminoids and use thereof as an anticancer agent” (CHINA MEDICAL UNIVERSITY, priority 2016, dated 2020)
# Experiments:
# [1] = system: MDA-MB-231 cells; assay: cDNA microarray; type: cell-based, human
# Protocol: The cells were incubated with or without 21a. After exposure, cell pellets were collected, and the total RNA from each treatment was purified using the Qiagen RNeasy Mini Kit (Qiagen, Valencia, Calif., USA). The RNA purity was determined to check the quality at 260/280 nm using a NanoDrop 1000 Spectrophotometer (Thermo Fisher Scientific, Wilmington, Del., USA). mRNA was amplified and labeled using the Gene-Chip WT Sense Target Labeling and Control Reagents kit (Affymetrix, Santa Clara, Calif., USA) for expression analysis. The synthesized cDNA was labeled with fluorescence and then hybridized for 17 h using AffymetrixGeneChip Human Gene 1.0 ST array (Affymetrix) to determine microarray hybridization following the manufacturer's protocols. The arrays were subsequently washed using Fluidics Station 450 (Affymetrix), stained with streptavidin-phycoerythrin (Gene-Chip Hybridization, Wash, and Stain kit, Affymetrix), and scanned on a GeneChip Scanner 3000 (Affymetrix). The localized concentrations of fluorescent molecules were quantitated and analyzed using Expression Console Software (Affymetrix) with default RMA parameters as previously described (Chang et al. 2012; Liu et al. 2013). […]
# [2] = system: MDA-MB-231 Xenograft; assay: In vivo antitumor activity, MDA-MB-231 Xenograft nude mice model
# Protocol: Female nu/nu mice (5 weeks old) were from National Laboratory Animal Center, Taipei, Taiwan. Mice were maintained under the procedures and guidelines from the Institutional Animal Care and Use Committee of the National Health Research Institutes, Taipei, Taiwan. All experiments were supervised under the Institutional Animal Care and Use Committee, China Medical University, Taichung, Taiwan. MDA-MB-231 breast cancer cells (5×10^6 cells per mouse) were suspended in 0.1 ml of Matrigel solution (50% (v/v) Matrigel in PBS) and inoculated into the mammary fat pads of the mice. […] Compounds was administered P.O. once every day for 32 days. Tumor size and mouse body weight were measured once every 4 days, and tumor volume (mm3) was calculated using the equation: length×(width)^2×0.5. At the end of experiments, mice were sacrificed and tumor nodules were dissected and weighed.
smiles,measurement,setting,value
"COc1cc(/C=C/C(=O)/C=C(O)/C=C/c2ccc(OC(=O)C(C)(CO)CO)c(OC)c2)ccc1OC(=O)C(C)(CO)CO [Compound 21a, ((1E,3Z,6E)-3-Hydroxy-5-oxohepta-1,3,6-triene-1,7-diyl)bis(2-methoxy-4,1-phenylene) bis(3-hydroxy-2-(hydroxymethyl)-2-methylpropenoate)]",log2 (Ratio) ABL2,"[1]; mRNA, MDA-MB-231 cells, 24-h treatment, ID PH_hs_0027902",4.287
same,log2 (Ratio) CENPI,"[1]; mRNA, MDA-MB-231 cells, 24-h treatment, ID PH_hs_0028200",−2.537
same,log2 (Ratio) CCDC85B,"[1]; mRNA, MDA-MB-231 cells, 24-h treatment, ID PH_hs_0028915",−2.622
same,log2 (Ratio) TCF21,"[1]; mRNA, MDA-MB-231 cells, 24-h treatment, ID PH_hs_0028987",2.769
same,log2 (Ratio) AKR1C1,"[1]; mRNA, MDA-MB-231 cells, 24-h treatment, ID PH_hs_0029660",2.695
same,log2 (Ratio) FANCF,"[1]; mRNA, MDA-MB-231 cells, 24-h treatment, ID PH_hs_0030800",−2.553
same,log2 (Ratio) NFKBIB,"[1]; mRNA, MDA-MB-231 cells, 24-h treatment, ID PH_hs_0030976",2.516
same,log2 (Ratio) VIMP,"[1]; mRNA, MDA-MB-231 cells, 24-h treatment, ID PH_hs_0031143",3.213
same,log2 (Ratio) GNG2,"[1]; mRNA, MDA-MB-231 cells, 24-h treatment, ID PH_hs_0031540",−2.661
same,log2 (Ratio) CCL26,"[1]; mRNA, MDA-MB-231 cells, 24-h treatment, ID PH_hs_0031719",4.147
same,log2 (Ratio) SIK1,"[1]; mRNA, MDA-MB-231 cells, 24-h treatment, ID PH_hs_0033027",2.548
same,log2 (Ratio) DDIT3,"[1]; mRNA, MDA-MB-231 cells, 24-h treatment, ID PH_hs_0033101",3.556
same,log2 (Ratio) OMA1,"[1]; mRNA, MDA-MB-231 cells, 24-h treatment, ID PH_hs_0035337",−2.514
same,log2 (Ratio) SAT1,"[1]; mRNA, MDA-MB-231 cells, 24-h treatment, ID PH_hs_0035404",3.764
same,log2 (Ratio) AKR1C3|AKR1C1,"[1]; mRNA, MDA-MB-231 cells, 24-h treatment, ID PH_hs_0035466",2.962
same,log2 (Ratio) ETV1,"[1]; mRNA, MDA-MB-231 cells, 24-h treatment, ID PH_hs_0035609",−2.788
same,log2 (Ratio) RC3H1,"[1]; mRNA, MDA-MB-231 cells, 24-h treatment, ID PH_hs_0035614",3.063
same,log2 (Ratio) GDF15,"[1]; mRNA, MDA-MB-231 cells, 24-h treatment, ID PH_hs_0035765",3.427
same,log2 (Ratio) PIF1,"[1]; mRNA, MDA-MB-231 cells, 24-h treatment, ID PH_hs_0036878",−2.714
same,log2 (Ratio) MALAT1,"[1]; mRNA, MDA-MB-231 cells, 24-h treatment, ID PH_hs_0037242",2.683
same,log2 (Ratio) MALAT1,"[1]; mRNA, MDA-MB-231 cells, 24-h treatment, ID PH_hs_0037472",3.48
same,log2 (Ratio) LOC100134259,"[1]; mRNA, MDA-MB-231 cells, 24-h treatment, ID PH_hs_0038982",−2.503
same,log2 (Ratio) MXD3,"[1]; mRNA, MDA-MB-231 cells, 24-h treatment, ID PH_hs_0040619",−2.891
same,log2 (Ratio) DUSP5,"[1]; mRNA, MDA-MB-231 cells, 24-h treatment, ID PH_hs_0042225",2.541
same,log2 (Ratio) MT4,"[1]; mRNA, MDA-MB-231 cells, 24-h treatment, ID PH_hs_0042334",3.931
same,log2 (Ratio) DNAJB1,"[1]; mRNA, MDA-MB-231 cells, 24-h treatment, ID PH_hs_0042409",2.767
same,log2 (Ratio) HMGCS1,"[1]; mRNA, MDA-MB-231 cells, 24-h treatment, ID PH_hs_0043719",2.895
same,log2 (Ratio) CLK1,"[1]; mRNA, MDA-MB-231 cells, 24-h treatment, ID PH_hs_0044272",2.829
same,log2 (Ratio) HSPA1A,"[1]; mRNA, MDA-MB-231 cells, 24-h treatment, ID PH_hs_0044921",2.535
same,log2 (Ratio) EID3,"[1]; mRNA, MDA-MB-231 cells, 24-h treatment, ID PH_hs_0045501",4.039
same,log2 (Ratio) SLC6A6,"[1]; mRNA, MDA-MB-231 cells, 24-h treatment, ID PH_hs_0045838",2.838
same,log2 (Ratio) RN7SK,"[1]; mRNA, MDA-MB-231 cells, 24-h treatment, ID PH_hs_0046245",4.763
same,log2 (Ratio) MARCKS,"[1]; mRNA, MDA-MB-231 cells, 24-h treatment, ID PH_hs_0047352",−3.043
same,log2 (Ratio) PDP1,"[1]; mRNA, MDA-MB-231 cells, 24-h treatment, ID PH_hs_0047571",−2.547
same,log2 (Ratio) ARF6,"[1]; mRNA, MDA-MB-231 cells, 24-h treatment, ID PH_hs_0047697",−2.688
same,log2 (Ratio) PHLDA1,"[1]; mRNA, MDA-MB-231 cells, 24-h treatment, ID PH_hs_0047965",−2.959
same,log2 (Ratio) MYCT1,"[1]; mRNA, MDA-MB-231 cells, 24-h treatment, ID PH_hs_0048553",3.866
same,log2 (Ratio) FKBP4,"[1]; mRNA, MDA-MB-231 cells, 24-h treatment, ID PH_hs_0048881",2.809
same,log2 (Ratio) NRP1,"[1]; mRNA, MDA-MB-231 cells, 24-h treatment, ID PH_hs_0048993",−2.677
same,log2 (Ratio) GPR39,"[1]; mRNA, MDA-MB-231 cells, 24-h treatment, ID PH_hs_0049449",−2.73
same,log2 (Ratio) HSPA6,"[1]; mRNA, MDA-MB-231 cells, 24-h treatment, ID PH_hs_0049600",6.644
same,log2 (Ratio) ZNF121,"[1]; mRNA, MDA-MB-231 cells, 24-h treatment, ID PH_hs_0060053",2.575
same,log2 (Ratio) TRIB3,"[1]; mRNA, MDA-MB-231 cells, 24-h treatment, ID PH_hs_0060828",2.735
same,log2 (Ratio) ZBTB21,"[1]; mRNA, MDA-MB-231 cells, 24-h treatment, ID PH_hs_0061012",2.731
same,log2 (Ratio) AKR1C1|LOC101060798,"[1]; mRNA, MDA-MB-231 cells, 24-h treatment, ID PH_hs_0062199",3.357
same,log2 (Ratio) CDKN1A,"[1]; mRNA, MDA-MB-231 cells, 24-h treatment, ID PH_hs_p061784",2.967
same,genes expressed at least by 2.5 folds compared with untreated control,[1]; total,97 genes
same,"antitumor activity, fold more potent than curcumin",[2]; MDA-MB-231 Xenograft nude mice model,10 fold
same,antitumor activity,[2]; PO 5 mg/kg/day,significant antitumor activity
same,inhibitory efficacy,[2]; PO 10 mg/kg/day,equivalent to 100 mg/kg/day of curcumin
same,tumor weight lighter than that of the control group,[2]; PO 50 mg/kg/day,60%
same,inhibition of MDA-MB-231 tumor growth,"[2]; PO 5, 10, 25 and 50 mg/kg/day",dose- and time-dependent inhibition
same,"body weight, behavior change and blood chemistry (serology detection)",[2]; treated vs untreated control group during antitumor evaluation,no significant difference
